Laboratory results as given in US20120252774A1, “STEROID TETROL SOLID STATE FORMS - 2” (priority 2010, published 2012).

Experiments:
[1] = system: ovalbumin (OVA) sensitized mouse model of asthma; test: ovalbumin (OVA) sensitized mouse model of asthma; format: in vivo, BALB/c mice; details: for IL-13: once daily subcutaneous injection, dexamethasone 5 mg/kg, triol 1 mg/mouse; for level of IL-5 in lung tissue: vehicle value stated for day 38, subcutaneous treatment
Description: BALB/c mice were sensitized by intraperitoneal injection with OVA (in alum adjuvant) on days 1, and 12. Airways were challenged with OVA on days 28 and 30 by delivery of OVA to the lung, or with saline. On day 31, six mice were with saline and 6 mice challenged with OVA were sacrificed and lung tissue was analyzed. The remaining animals were divided into 6 groups (6 mice per group). Groups of the mice were treated once daily by subcutaneous injection as follows. Group 1 vehicle control (0.1% carboxymethyl cellulose, 0.9% saline, 2% Tween 80, 0.05% phenol). Group 2 dexamethasone (5 mg/kg). Group 3 androstane-3α,16α,17α-triol (1 mg/mouse). Three animals in groups 1-3 were sacrificed on day 35 at 1 hr after final treatment and the remaining 3 animals in groups 1-3 were sacrificed on day 38.

[2] = system: bone marrow-derived mast cells (BMMC); test: mast cell stimulus-coupled degranulation (release of β-glucuronidase); format: cell-based, Balb/C mice
Description: In another protocol, a population of mast cells was cultivated from murine bone marrow as follows. Briefly, bone marrows from Balb/C mice were flushed from the femur using PBS and a 27 g needle. The cells were cultured in a mixture of ⅔ RPMI-1640 with 19% FBS and cells that secreted IL-3. The bone marrow cells were allowed to differentiate for 18-25 days in the IL-3-containing mixture before being used for experiments. Bone marrow cells cultured in this manner have a phenotype similar to mucosal mast cells and are referred to as bone marrow-derived mast cells (BMMC).
The homogeneity of the in vitro propagated mast cells was checked by conventional flow cytometric techniques and staining for cell-type specific markers. Between days 14 and 21 of propagation, mature mast cells were harvested and prepared for the test cultures. The objective was to assess of the effect of compounds such as dehydroepiandrosterone on mast cell stimulus-coupled degranulation. Prepared mast cells were dispensed into test culture wells at a density of 1×10^7 cells/mL. In control cultures, mast cells were induced to degranulate after cross linking of IgE receptors with IgE antigen-antibody complexes. In parallel groups of cultures mast cells were preincubated dehydroepiandrosterone at various doses followed by activation using anti-IgE antibody. There was no detectable degranulation of mast cells as measured by release of β-glucuronidase from cytosolic storage granules of the cells in the absence of the stimulus. Introduction of anti-Ig-E receptor antibody to the cultures caused a significant release of β-glucuronidase.

[3] = day 35, 1 hr after final treatment

Structure (SMILES) | capacity to limit eosinophil burden and reduce key inflammatory mediators (IL-5, IL-13, cysteinyl leukotrienes) ([1]; OVA sensitized mice) | IL-13 increase (rebound) after treatment ([1]; compared with dexamethasone treated animals) | IL-13 [1, 3] [pg/mL] | IL-13 ([1]; day 38) [pg/mL] | level of IL-5 in lung tissue [1] [pg/mL] | inhibition at 100 µM ([2]; Mus musculus, BMMC, 100 μM, pre-exposed 5 to 10 minutes before activation with anti-IgE antigen-antibody complexes) [%] | inhibition of degranulation at lower levels ([2]; levels lower than 100 μM) | degranulation on exposure to compound alone ([2]; no stimulus, release of β-glucuronidase)
C[C@]12CC[C@H]3[C@@H](CCC4C[C@H](O)CC[C@@]43C)[C@@H]1C[C@@H](O)[C@H]2O (stereo partly drawn) [androstane-3α,16α,17α-triol] | limit eosinophil burden and to reduce key inflammatory mediators | did not generate an IL-13 increase | 195 | 210 | 90 | – | – | –
C[C@]12CC[C@H](O)CC1=CC[C@@H]1[C@@H]2CC[C@]2(C)C(=O)CC[C@@H]12 [dehydroepiandrosterone] | – | – | – | – | – | ~70 | proportionately less capacity to inhibit degranulation | no measurable degranulation
C[C@@H]1C[C@H]2[C@@H]3CCC4=CC(=O)C=C[C@]4(C)[C@@]3(F)[C@@H](O)C[C@]2(C)[C@@]1(O)C(=O)CO [dexamethasone] | – | – | 340 | 390 | 145 | – | – | –
